The values that follow come from publication PMC3871618 (PLoS ONE, 2013).

Read-outs that look alike come from different tables or passages of the source. Bounds are passed on as bounds.

For data set [1], the target named is T1, ABCB1 (Homo sapiens, UniProt P08183). Nature of the data set: ABCB1-ATPase inhibition assay (verapamil-stimulated), Sf9 membranes. The class given is biochemical. More on the design: purchased Solvo Biotechnology (Szeged, Hungary); host or cells: Sf9 insect cell membranes. As to conditions: 140 nM to 300 µM. As for the experimental part: (§1) The drug efflux function of ABCB1 is linked to hydrolysis of ATP by ATPase, which is stimulated in the presence of ABCB1 substrates. In the activation assay, transported substrates can stimulate baseline vanadate-sensitive ATPase activity, whereas in the inhibition assay, which is carried out in the presence of a known activator of the transporter, inhibitors may reduce the maximal vanadate-sensitive ATPase activity. ATPase activity was measured by assessing the amount of phosphate liberated from ATP by the ABCB1 transporter using the […] ATPase kit for ABCB1 according to the manufacturer’s instructions. For this purpose, Sf9 cell membranes (4 µg protein per well) were mixed with each of the test compounds (singly) in solutions with concentrations ranging from 140 nM to 300 µM, then incubated at 37°C for 10 min in the presence or absence of 1.2 mM sodium orthovanadate. The reaction was started by adding 10 mM ATP solution (magnesium salt) to the reaction mixture, stopped 10 min later, and the absorbance at 590 nm was measured after a further 30 min incubation (GeniosPlus apparatus; Tecan, Männedorf, Switzerland). The ATPase activity in each sample was determined as the difference in liberated amounts of phosphate measured in the presence and absence of 1.2 mM sodium orthovanadate. Phosphate standards were prepared in each plate and verapamil served as a positive control for ABCB1 stimulation. The results are expressed as vanadate-sensitive ATPase activities.
T1 sequence (P08183 whole entry): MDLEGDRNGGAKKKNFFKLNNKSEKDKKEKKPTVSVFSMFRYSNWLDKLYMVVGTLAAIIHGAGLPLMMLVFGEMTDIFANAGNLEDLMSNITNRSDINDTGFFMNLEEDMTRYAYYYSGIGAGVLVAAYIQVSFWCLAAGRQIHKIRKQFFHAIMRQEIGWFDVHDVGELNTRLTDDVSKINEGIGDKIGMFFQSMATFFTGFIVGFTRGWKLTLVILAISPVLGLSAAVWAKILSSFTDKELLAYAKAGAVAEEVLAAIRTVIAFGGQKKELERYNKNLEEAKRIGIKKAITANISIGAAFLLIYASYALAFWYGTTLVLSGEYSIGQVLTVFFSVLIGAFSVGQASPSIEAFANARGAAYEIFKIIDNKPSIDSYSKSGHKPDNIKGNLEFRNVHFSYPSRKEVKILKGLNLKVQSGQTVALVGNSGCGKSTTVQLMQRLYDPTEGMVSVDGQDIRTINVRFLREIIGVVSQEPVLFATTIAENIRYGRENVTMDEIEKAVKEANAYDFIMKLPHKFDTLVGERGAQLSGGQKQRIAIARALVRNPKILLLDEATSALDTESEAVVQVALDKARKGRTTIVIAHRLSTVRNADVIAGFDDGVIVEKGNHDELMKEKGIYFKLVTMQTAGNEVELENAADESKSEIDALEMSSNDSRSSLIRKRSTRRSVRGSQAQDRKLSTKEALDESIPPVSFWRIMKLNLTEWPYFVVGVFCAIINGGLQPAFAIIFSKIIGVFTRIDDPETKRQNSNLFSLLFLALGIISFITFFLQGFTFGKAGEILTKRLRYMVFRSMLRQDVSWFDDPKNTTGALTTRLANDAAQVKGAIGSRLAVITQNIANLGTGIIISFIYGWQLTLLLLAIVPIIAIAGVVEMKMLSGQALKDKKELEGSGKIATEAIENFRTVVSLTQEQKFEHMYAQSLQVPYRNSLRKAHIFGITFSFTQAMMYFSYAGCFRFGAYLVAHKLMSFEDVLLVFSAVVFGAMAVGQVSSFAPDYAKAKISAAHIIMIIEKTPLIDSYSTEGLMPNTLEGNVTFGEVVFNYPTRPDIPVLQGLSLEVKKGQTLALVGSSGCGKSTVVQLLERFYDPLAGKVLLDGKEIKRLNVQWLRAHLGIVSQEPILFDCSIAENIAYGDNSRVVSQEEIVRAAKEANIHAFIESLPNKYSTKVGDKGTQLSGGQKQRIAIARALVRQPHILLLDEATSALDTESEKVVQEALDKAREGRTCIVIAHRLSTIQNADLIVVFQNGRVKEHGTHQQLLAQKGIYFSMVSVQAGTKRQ

The next data set concerns HepG2 cells. Nature of the data set: XTT cytotoxicity, CDKi + DNR combination (Chou-Talalay). The format is cell-based, human. As to conditions: HepG2, 72 h; for Fa values for synergism of combination with DNR: constant ratio; for DRI at Fa 0.75, drug II (CDKi) / DRI at Fa 0.9, drug II (CDKi): CDKi combined with DNR at constant ratio. As for the experimental part:
(§2) 1×10^4 MDCKII-ABCB1, 1×10^4 MDCKII parent, 2×10^4 HCT-8, or 2×10^4 HepG2 cells were grown in 96-well culture plates and incubated for 24 h. Individual CDKi diluted with growth medium were added to the exponentially growing cells and the resulting mixtures were incubated for 72 h at 37°C, 5% CO2. Cytotoxicity was then assessed using the XTT assay as follows: cells were incubated with 0.167 mg/mL XTT and 4 µM PMS in Opti-MEM for 2 h. The absorbance of the soluble formazan released was measured at 470 nm on a microplate reader (Tecan, Männedorf, Switzerland).
(§3) The combination index (CI) method of Chou-Talalay, based on the median-effect equation, was used to calculate combined drug effects. This approach offers quantitative definitions for additive, synergistic and antagonistic effects (CI values of 0.9–1.1, <0.9, and >1.1, respectively). Combination experiments were performed in a constant-ratio experimental design as recommended for the most efficient data analysis, and the generated data were used to quantify dose-reduction indices (DRI) for pairs of the tested drugs. DRI represents the fold-change of a focal effect when individual agents are used simultaneously relative to their separate effects, and their activity is synergistic if DRI > 1. […] The data acquired from these drug combination experiments were analyzed using CompuSyn ver. 3.0.1 software (ComboSyn Inc., Paramus, NJ, USA).

A further data set has as its system HCT-8 cells. The description is as above. To be noted: HCT-8, 72 h; for Fa at which combination with DNR shows synergistic cytotoxic effects: constant ratio; for DRI at Fa 0.5, drug II (CDKi) / DRI at Fa 0.75, drug II (CDKi) / DRI at Fa 0.9, drug II (CDKi): CDKi combined with DNR at constant ratio. As for the experimental part: as §2, §3
The target of data set [2] is T1, ABCB1. In words: HOE (Hoechst 33342) accumulation in MDCKII-ABCB1 cells. Also on record: expressed in transfected cells; host or cells: MDCKII (canine kidney) cells transduced with human ABCB1, from Prof; Piet Borst and Dr. Alfred Schinkel (The Netherlands Cancer Institute). To be noted: human, probe Hoechst 33342 (HOE), 8 µM, CDKi applied at their respective IC50 concentrations, % as strongly as LY, read-out: Inhibition of HOE efflux relative to LY. The format is cell-based. As for the experimental part:
(§4) To investigate the inhibitory activity of CDKi on ABCB1, the intracellular accumulation of HOE, a fluorescent ABCB1 substrate, was examined in both MDCKII-ABCB1 and MDCKII parent cell lines in the presence and absence of the tested compounds. The reduction in fluorescence intensity in ABCB1-transduced cells indicates the efflux activity of the ABCB1 transporter, its inhibition increases HOE accumulation and thus the intracellular fluorescence.
(§5) The assay was conducted as previously described and optimized for application in ABCB1-expressing cells. Briefly, MDCKII-ABCB1 and MDCKII parent cells were seeded at 5×10^4 cells per well on a 96-well culture plate and used for accumulation experiments after 24 h cultivation. The medium was removed and cells were washed twice with prewarmed phosphate buffered saline (PBS) at pH 7.4.

In data set [3] the target is T2, ABCB1 transporter (Homo sapiens, UniProt P08183).
T2 construct: expressed in transfected cells; host or cells: MDCKII (canine kidney) cells transduced with human ABCB1, from Prof; Piet Borst and Dr. Alfred Schinkel (The Netherlands Cancer Institute)
T2 sequence (P08183 whole entry): as above
In words: DNR accumulation in MDCKII-ABCB1 cells (flow cytometry), normalized to parental MDCKII. As to conditions: 20 µM CDKi, 2 µM DNR. The class given is cell-based. As for the experimental part: Briefly, MDCKII-ABCB1 and MDCKII parent cells were seeded at 1.5×10^5 cells per well on a 12-well plate 24 h before the experiment. The medium was removed and the cells were washed with prewarmed PBS. The cells were then preincubated in Opti-MEM, with or without CDKi or LY at 37°C in 5% CO2 for 30 min. […] Accumulation was stopped by cooling the samples on ice, removing the medium and washing twice with ice-cold PBS. The cells were then detached from the plates with 10× trypsin-EDTA, resuspended in PBS with 2% FBS and transferred to Eppendorf tubes, which were placed on ice until analysis. […] The median fluorescence (MF) intensity of 10,000 measured cells was used to compare the fluorescence resulting from each of the treatments. […] The MF intensity of untreated cells was subtracted from fluorescence values obtained for all the measured samples.
To quantify the inhibitory effect of each tested compound on the ABCB1 transporter in the MDCKII-ABCB1 cell line, the ratio between the MF intensity with or without inhibitor was calculated and normalized to the effect in the parental MDCKII cell line according to the following equation [30]: [drawing 1]

The next data set relates to MDCKII parent cells. Nature of the data set: XTT cytotoxicity, CDKi + DNR combination (Chou-Talalay). The class given is cell-based. To be noted: 72 h; for Fa above which combination with DNR is synergistic: constant ratio. As for the experimental part:
as §2, §3

The test system of another data set is MDCKII-ABCB1 cells. The description is as above. The format is cell-based. As for the experimental part: as §2, §3
Data set [4] addresses T2, ABCB1 transporter. In words: HOE (Hoechst 33342) accumulation in MDCKII-ABCB1 cells. The format is cell-based. To be noted: 8 µM HOE, end-point fluorescence at 30 min, 50% of each compound's own maximum inhibitory activity, read-out: IC50, inhibition of ABCB1-mediated efflux of HOE. As for the experimental part:
as §4, §5

The target in data set [5] is T1, ABCB1. Nature of the data set: ABCB1-ATPase activation assay (baseline), Sf9 membranes. The format is biochemical. More on the design: purchased Solvo Biotechnology (Szeged, Hungary); host or cells: Sf9 insect cell membranes. As to conditions: for Effect on baseline vanadate-sensitive ATPase activity of ABCB1: activation assay, 140 nM to 300 µM. As for the experimental part:
as §1

For the next data set, the system named is ABCG2. More on the design: method as in PMID 22173067, PMID 24116053. As to conditions: in vitro and in situ; cited from earlier work.
The mark [6] stands for this setting: CDKi combined with DNR at constant ratio.
[7] abbreviates: MDCKII-ABCB1, 72 h, CDKi combined with DNR at constant ratio.

Consider `CC[C@H](CO)Nc1nc(NCc2ccccc2)c2ncn(C(C)C)c2n1` [roscovitine], for which, at ABCB1 [1], the “Effect on verapamil-stimulated vanadate-sensitive ATPase activity of ABCB1” value is “considerably and dose-dependently reduced”. In the data set with HepG2 cells, the “Fa values for synergism of combination with DNR” value is recorded as 0.65; the “DRI at Fa 0.75, drug II (CDKi)” value came to 2.51±0.02; the “DRI at Fa 0.9, drug II (CDKi)” value was 2.56±0.02. In the data set with HCT-8 cells, the “Fa at which combination with DNR shows synergistic cytotoxic effects” value is given as greater than 0.3; the “DRI at Fa 0.5, drug II (CDKi)” value amounted to 2.49±0.02; the “DRI at Fa 0.75, drug II (CDKi)” value came out at 2.29±0.03; the “DRI at Fa 0.9, drug II (CDKi)” value is 2.11±0.06. For the same compound, at ABCB1 [2], the inhibition at 30 min amounted to 57%. The “ABCB1 inhibition (DNR efflux)” value at ABCB1 transporter [3] was “significant (P<0.05) ABCB1 inhibition”. In the data set with MDCKII parent cells (setting [6]), the “DRI at Fa 0.75, drug II (CDKi)” value is recorded as 2.29±0.05 and the “DRI at Fa 0.9, drug II (CDKi)” value is 2.37±0.06. Also, the “Fa above which combination with DNR is synergistic” value with MDCKII parent cells is greater than 0.45. For the same compound, in the data set on MDCKII-ABCB1 cells, the “DRI at Fa 0.75, drug II (CDKi)” value came to 3.08±0.02 and the “DRI at Fa 0.9, drug II (CDKi)” value came to 2.96±0.03. For the same compound, on ABCB1 transporter [4], the IC50 came out at 10.3 µM. At ABCB1 [5], the “Effect on baseline vanadate-sensitive ATPase activity of ABCB1” value is on record as “increased the baseline vanadate-sensitive ATPase activity”.
As to `CC[C@H](CO)Nc1nc(NCc2ccccc2O)c2ncn(C(C)C)c2n1` [olomoucine II], at ABCB1 [1], the “Effect on verapamil-stimulated vanadate-sensitive ATPase activity of ABCB1” value is “considerably and dose-dependently reduced”. Besides, in the data set with HepG2 cells, the “Fa values for synergism of combination with DNR” value is reported as 0.75; the “DRI at Fa 0.75, drug II (CDKi)” value was found to be 2.08±0.03; the “DRI at Fa 0.9, drug II (CDKi)” value is 2.38±0.04. In addition, in the data set with HCT-8 cells, the “Fa at which combination with DNR shows synergistic cytotoxic effects” value is reported as greater than 0.1; the “DRI at Fa 0.5, drug II (CDKi)” value worked out at 3.04±0.13; the “DRI at Fa 0.75, drug II (CDKi)” value amounted to 2.98±0.06; the “DRI at Fa 0.9, drug II (CDKi)” value was 2.92±0.05. For the same compound, in the data set with ABCG2, the ABCG2 inhibition result is “can inhibit ABCG2 in vitro and in situ”. In addition, the inhibition at 30 min on ABCB1 [2] is 48%. The “ABCB1 inhibition (DNR efflux)” value on ABCB1 transporter [3] was “significant (P<0.05) ABCB1 inhibition”. Besides, in the data set with MDCKII parent cells (setting [6]), the “DRI at Fa 0.5, drug II (CDKi)” value is 2.51±0.08; the “DRI at Fa 0.75, drug II (CDKi)” value is 2.63±0.05; the “DRI at Fa 0.9, drug II (CDKi)” value is recorded as 2.75±0.02. Besides, the “Fa above which combination with DNR is synergistic” value in the data set on MDCKII parent cells is “exceeded 0.4”. Moreover, the “Combination index (CI) category, combination with DNR” value in the data set with MDCKII-ABCB1 cells (MDCKII-ABCB1, 72 h, constant ratio) is “synergistic category of drug combination effects across almost the whole fraction of cells affected (Fa) range”. Further, in the data set on MDCKII-ABCB1 cells (setting [7]), the “DRI at Fa 0.5, drug II (CDKi)” value worked out at 2.83±0.27; the “DRI at Fa 0.75, drug II (CDKi)” value was 2.84±0.19; the “DRI at Fa 0.9, drug II (CDKi)” value amounted to 2.86±0.10. The IC50 at ABCB1 transporter [4] was determined as 6.4 µM. The “Effect on baseline vanadate-sensitive ATPase activity of ABCB1” value on ABCB1 [5] was “increased the baseline vanadate-sensitive ATPase activity”. On ABCB1 [5] (from ATPase activity in Sf9 membranes overexpressing human ABCB1), the ABCB1 substrate classification entry is “ABCB1 substrate and inhibitor”.
